For orientation: IC50 means the concentration at which inhibition is half-maximal.

Activity calls are given as the source filed them. The calls are words filed in the database; no cut-off is given here. Bounds are passed on as bounds.

Drawing on ChEMBL document CHEMBL4808219, “Exploration of Benzo[b]carbazole-6,11-diones as anticancer agents: Synthesis and studies of hTopoIIα inhibition and apoptotic effects” (Bioorg Med Chem Lett, 2021), this text covers IC50 and inhibition for 39 compounds.

The test system of test [1] is MDA-MB-231. As to the kind of experiment: Cytotoxicity against human MDA-MB-231 cells assessed as reduction in cell viability incubated for 48 hrs by MTT assay. Type of test: functional, cell-based. (Tetrazolium assays rely on reduction of a dye to a coloured formazan, in cell work by metabolically active cells.)
In test [2] the test system is HEK-293T. In words: Cytotoxicity against human HEK293T cells assessed as reduction in cell viability incubated for 48 hrs by MTT assay. In kind it is cell-based.
A short description of test [3]: Cytotoxicity against human H357 cells assessed as reduction in cell viability incubated for 48 hrs by MTT assay. Type of test: functional, cell-based.
Test [4] deals with DNA topoisomerase 2-alpha (Homo sapiens) (UniProt P11388). In words: Inhibition of human topoisomerase 2alpha assessed as reduction in decatenation of kinetoplast DNA by agarose gel electrophoresis method.
Chain of DNA topoisomerase 2-alpha (Homo sapiens) (P11388 whole entry): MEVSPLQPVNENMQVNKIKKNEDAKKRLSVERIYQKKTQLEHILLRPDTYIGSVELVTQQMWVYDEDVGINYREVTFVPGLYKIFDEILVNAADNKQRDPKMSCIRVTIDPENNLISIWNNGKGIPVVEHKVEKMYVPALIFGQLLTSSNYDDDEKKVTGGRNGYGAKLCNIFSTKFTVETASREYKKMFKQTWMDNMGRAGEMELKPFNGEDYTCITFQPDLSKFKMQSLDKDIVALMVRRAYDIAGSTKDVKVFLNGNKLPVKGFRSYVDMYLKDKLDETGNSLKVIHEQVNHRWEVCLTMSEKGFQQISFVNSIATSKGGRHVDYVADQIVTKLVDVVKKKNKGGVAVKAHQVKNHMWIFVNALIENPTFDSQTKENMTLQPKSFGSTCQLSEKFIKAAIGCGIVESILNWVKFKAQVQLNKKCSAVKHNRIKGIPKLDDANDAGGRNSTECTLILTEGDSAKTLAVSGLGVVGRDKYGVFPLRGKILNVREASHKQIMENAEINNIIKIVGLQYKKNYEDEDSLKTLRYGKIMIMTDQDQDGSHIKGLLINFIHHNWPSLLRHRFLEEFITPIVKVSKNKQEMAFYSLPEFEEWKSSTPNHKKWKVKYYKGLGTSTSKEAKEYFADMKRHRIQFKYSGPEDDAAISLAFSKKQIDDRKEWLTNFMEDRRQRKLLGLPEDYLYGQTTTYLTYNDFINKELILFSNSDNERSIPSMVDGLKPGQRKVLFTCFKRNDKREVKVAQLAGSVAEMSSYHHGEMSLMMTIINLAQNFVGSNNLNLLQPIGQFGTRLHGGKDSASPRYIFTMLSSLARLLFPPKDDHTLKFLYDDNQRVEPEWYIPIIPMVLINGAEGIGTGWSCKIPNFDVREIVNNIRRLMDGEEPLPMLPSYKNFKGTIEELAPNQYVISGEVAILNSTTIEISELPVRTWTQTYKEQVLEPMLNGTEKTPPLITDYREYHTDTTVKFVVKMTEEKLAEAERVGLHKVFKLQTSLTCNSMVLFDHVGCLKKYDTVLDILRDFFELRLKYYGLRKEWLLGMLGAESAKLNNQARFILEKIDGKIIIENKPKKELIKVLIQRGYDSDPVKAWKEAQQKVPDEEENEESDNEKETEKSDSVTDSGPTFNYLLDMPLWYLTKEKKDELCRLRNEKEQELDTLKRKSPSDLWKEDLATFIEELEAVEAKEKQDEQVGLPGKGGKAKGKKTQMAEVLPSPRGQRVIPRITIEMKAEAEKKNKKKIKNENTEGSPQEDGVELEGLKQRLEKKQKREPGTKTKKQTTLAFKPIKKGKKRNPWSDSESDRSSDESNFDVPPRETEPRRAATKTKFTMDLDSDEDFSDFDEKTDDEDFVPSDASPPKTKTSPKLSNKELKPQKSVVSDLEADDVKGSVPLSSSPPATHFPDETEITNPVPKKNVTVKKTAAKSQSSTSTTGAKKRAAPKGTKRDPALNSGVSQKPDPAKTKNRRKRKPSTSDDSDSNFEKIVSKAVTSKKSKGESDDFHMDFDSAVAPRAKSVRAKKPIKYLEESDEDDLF
The subject of test [5] is MCF7. As to the kind of experiment: Cytotoxicity against human MCF7 cells assessed as reduction in cell viability incubated for 48 hrs by MTT assay. Type of test: functional, cell-based.
For test [6], the system named is MDA-MB-231. As to the kind of experiment: Cytotoxicity against human MDA-MB-231 cells assessed as reduction in cell survival by clonogenic assay. In kind it is functional, cell-based.
Test [7] deals with MCF-10A. In words: Cytotoxicity against human MCF-10A cells. Type of test: cell-based.
Where [8] appears, read: Homo sapiens, MDA-MB-231, 48 h, read-out: IC50.
Where [9] appears, read: Homo sapiens, H357, 48 h, read-out: IC50.
Where [10] appears, read: Homo sapiens, MCF7, 48 h, read-out: IC50.

With `COc1cc2[nH]c3c(c2c(OC)c1OC)C(=O)c1ccccc1C3=O`, the IC50 amounted to 8.1 µM in test [1] (setting [8]), 10.5 µM in test [2], 9.4 µM in test [3] (setting [9]) and 8.2 µM in test [5] (setting [10]). Further, the inhibition result in test [4] is “Active”.
For `O=C1c2ccccc2C(=O)c2c1[nH]c1ccc(Cl)cc21` the same measures were 4.4 µM, 6.3 µM, 4.6 µM, 4.5 µM and “Active”.
In the case of `Cc1ccc(NC2=CC(=O)c3ccccc3C2=O)cc1C`, the IC50 in test [1] (setting [8]) turned out to be 5.9 µM; in test [2], 7.7 µM; in test [3] (setting [9]), 6.4 µM; in test [5] (setting [10]) it was 5.3 µM.
On to `O=C1C=C(NCCCO)C(=O)c2ccccc21`, for which the IC50 was determined as 9.8 µM in test [1] (setting [8]), 10.3 µM in test [2], 9.9 µM in test [3] (setting [9]) and 9.6 µM in test [5] (setting [10]).
For `COc1ccc2[nH]c3c(c2c1)C(=O)c1ccccc1C3=O` the same measures were 8.7 µM, 10.5 µM, 9.6 µM and 8 µM.
Turning to `CN(C)CCCNC1=CC(=O)c2ccccc2C1=O`, the IC50 stood at 6.4 µM in test [1] (setting [8]), 8.1 µM in test [2], 7.3 µM in test [3] (setting [9]) and 6.3 µM in test [5] (setting [10]).
For `O=C1C=C(Nc2ccccc2)C(=O)c2ccccc21` the same measures were 5.3 µM, 5.6 µM, 4.2 µM and 4.4 µM.
The like results for `COc1cc2[nH]c3c(c2cc1OC)C(=O)c1ccccc1C3=O` were, in that order, 7.4 µM, 10.2 µM, 8.7 µM and 8.4 µM.
The like results for `O=C1C=C(Nc2ccc3c(c2)OCO3)C(=O)c2ccccc21` were, in that order, 9.4 µM, 10.2 µM, 10.4 µM and 9.6 µM.
Consider `COc1cc2[nH]c3c(c2c(OC)c1OC)C(=O)c1c(O)cccc1C3=O`, for which the IC50 result in test [1] (mda-mb-231), in test [3] (h357) and in test [5] (mcf7) was “Not Active” each time.
For the compound `O=C1C=C(Nc2cnccn2)C(=O)c2ccccc21`, the IC50 amounted to 7 µM in test [1] (setting [8]), 9 µM in test [2], 8.1 µM in test [3] (setting [9]) and 7.2 µM in test [5] (setting [10]).
With `Cn1c2c(c3ccccc31)C(=O)c1ccccc1C2=O`, the IC50 in test [1] (setting [8]) came out at 6.5 µM; in test [2], 8.4 µM; in test [3] (setting [9]), 7.3 µM; in test [5] (setting [10]), 5.4 µM. The inhibition result in test [4] was “Active”.
In the case of `O=C1C=C(Nc2nccs2)C(=O)c2ccccc21`, the IC50 was found to be 6.3 µM in test [1] (setting [8]), 7.6 µM in test [2], 7.2 µM in test [3] (setting [9]) and 6.4 µM in test [5] (setting [10]).
For `COc1ccc2c3c([nH]c2c1)C(=O)c1ccccc1C3=O` the same measures were 7.5 µM, 9.8 µM, 7.9 µM and 7 µM.
The like results for `O=C1C=C(Nc2ccc(F)c(F)c2)C(=O)c2ccccc21` were, in that order, 7 µM, 9.4 µM, 8.4 µM and 7.2 µM.
For the compound `O=C1C(Nc2ccccc2)=CC(=O)c2c(O)cccc21`, the IC50 was 3.7 µM in test [1] (setting [8]), 4.2 µM in test [2], 4.9 µM in test [3] (setting [9]) and 3.8 µM in test [5] (setting [10]).
As to `COc1cc(NC2=CC(=O)c3c(O)cccc3C2=O)cc(OC)c1OC`, the IC50 entry in test [1] (mda-mb-231), in test [3] (h357) and in test [5] (mcf7) was “Not Active” in each case.
With `O=C1C=C(Nc2ccc(Cl)cc2)C(=O)c2ccccc21`, the IC50 in test [1] (setting [8]) amounted to 3.9 µM; in test [2], 4.9 µM; in test [3] (setting [9]), 4.8 µM; in test [5] (setting [10]) it was 4.1 µM.
For the compound `O=C1c2ccccc2C(=O)c2c1[nH]c1cc(F)c(F)cc21`, the IC50 entry in test [1] (mda-mb-231), in test [3] (h357) and in test [5] (mcf7) was “Not Active” each time.
On to `COc1cc([C@@H]2c3cc4c(cc3[C@@H](O[C@@H]3O[C@@H]5CO[C@@H](C)O[C@H]5[C@H](O)[C@H]3O)[C@H]3COC(=O)[C@H]23)OCO4)cc(OC)c1O` [ETOPOSIDE], for which the IC50 in test [1] (setting [8]) is 48 µM; in test [2], 22 µM; in test [6], 42 µM; in test [3] (setting [9]), 32 µM; in test [7], above 120 µM; in test [5] (setting [10]) it was 45 µM.
In the case of `O=C1C=C(Nc2ccc(F)cc2)C(=O)c2ccccc21`, the IC50 in test [1] (setting [8]) was 4.9 µM; in test [2], 5.2 µM; in test [3] (setting [9]), 3.8 µM; in test [5] (setting [10]), 4.1 µM.
The like results for `CCC(C)c1ccc(NC2=CC(=O)c3ccccc3C2=O)cc1` (configuration not stated) were, in that order, 4.2 µM, 5.2 µM, 4 µM and 4.2 µM.
Consider `O=C1C=C(NCCCN2CCOCC2)C(=O)c2ccccc21`, for which the IC50 in test [1] (setting [8]) turned out to be 6.4 µM; in test [2] it was 7.2 µM; in test [3] (setting [9]), 6.9 µM; in test [5] (setting [10]), 6.2 µM.
The like results for `COc1cc(NC2=CC(=O)c3ccccc3C2=O)cc(OC)c1OC` were, in that order, 6.9 µM, 8.4 µM, 6.8 µM and 7 µM.
For `O=C1c2ccccc2C(=O)c2c1[nH]c1cc(Cl)ccc21`, the IC50 in test [1] (setting [8]) came out at 5.5 µM; in test [2], 7.3 µM; in test [3] (setting [9]), 6.5 µM; in test [5] (setting [10]) it was 4.4 µM. For the same compound, in test [4], the inhibition result is “Active”.
Consider `O=C1c2ccccc2C(=O)c2c1[nH]c1ccc(F)cc21`, for which the IC50 in test [1] (setting [8]) was found to be 4.8 µM; in test [2] it was 7.5 µM; in test [3] (setting [9]), 5.6 µM; in test [5] (setting [10]), 4.7 µM. Further, the inhibition result in test [4] is “Active”.
As for `O=C1c2ccccc2C(=O)c2c1[nH]c1ccccc21` [BENZOCARBAZOLEDIONE], the IC50 turned out to be 5.2 µM in test [1] (setting [8]), 5.8 µM in test [2], 5 µM in test [3] (setting [9]) and 4.5 µM in test [5] (setting [10]).
For the compound `COc1ccc(NC2=CC(=O)c3ccccc3C2=O)cc1OC`, the IC50 in test [1] (setting [8]) amounted to 6.2 µM; in test [2], 6.3 µM; in test [3] (setting [9]), 6.2 µM; in test [5] (setting [10]) it was 6.4 µM. Further, the inhibition entry in test [4] is “Active”.
`CN1CCN(CCCNC2=CC(=O)c3ccccc3C2=O)CC1`: the IC50 turned out to be 10 µM in test [1] (setting [8]), 10.9 µM in test [2], 10.9 µM in test [3] (setting [9]) and 10.4 µM in test [5] (setting [10]).
As for `COc1ccc(NC2=CC(=O)c3ccccc3C2=O)cc1`, the IC50 is 4.8 µM in test [1] (setting [8]), 5.5 µM in test [2], 4.6 µM in test [3] (setting [9]) and 4.5 µM in test [5] (setting [10]).
For the compound `Cc1ccc(NC2=CC(=O)c3ccccc3C2=O)cc1`, the IC50 came out at 5.3 µM in test [1] (setting [8]), 5.6 µM in test [2], 5.2 µM in test [3] (setting [9]) and 6.4 µM in test [5] (setting [10]). Further, the inhibition result in test [4] is “Active”.
For `CCC(C)c1ccc2[nH]c3c(c2c1)C(=O)c1ccccc1C3=O` (configuration not stated) the same measures were 5.4 µM, 9 µM, 7.1 µM, 6.3 µM and “Active”.
For `COc1cc2[nH]c3c(c2c(OC)c1OC)C(=O)c1c(OC)cccc1C3=O`, the IC50 entry in test [1] (mda-mb-231), in test [3] (h357) and in test [5] (mcf7) was “Not Active” throughout.
Consider `Cc1ccc2[nH]c3c(c2c1)C(=O)c1ccccc1C3=O`, for which the IC50 in test [1] (setting [8]) stood at 4.9 µM; in test [2], 8 µM; in test [3] (setting [9]), 6.1 µM; in test [5] (setting [10]) it was 5.2 µM. Also, in test [4], the inhibition entry is “Active”.
`Cc1cc2[nH]c3c(c2cc1C)C(=O)c1ccccc1C3=O`: the IC50 in test [1] (setting [8]) is 6.3 µM; in test [2], 7 µM; in test [3] (setting [9]), 6.1 µM; in test [5] (setting [10]), 4.2 µM.
With `COc1cccc2c1C(=O)c1c([nH]c3ccccc13)C2=O`, the IC50 in test [1] (setting [8]) was 8.9 µM; in test [2] it was 10.4 µM; in test [3] (setting [9]), 10.5 µM; in test [5] (setting [10]), 9.8 µM.
In the case of `COc1cc(NC2=CC(=O)c3c(OC)cccc3C2=O)cc(OC)c1OC`, the IC50 entry in test [1] (mda-mb-231), in test [3] (h357) and in test [5] (mcf7) was “Not Active” in each case.
For the compound `O=C1C=C(Nc2cccc(Cl)c2)C(=O)c2ccccc21`, the IC50 is 4.1 µM in test [1] (setting [8]), 5.2 µM in test [2], 4 µM in test [3] (setting [9]) and 4.2 µM in test [5] (setting [10]).
Turning to `COc1cccc2c1C(=O)C=C(Nc1ccccc1)C2=O`, the IC50 stood at 6.2 µM in test [1] (setting [8]), 7.7 µM in test [2], 6.4 µM in test [3] (setting [9]) and 6 µM in test [5] (setting [10]).
